Reference: patent US4406879A, “Phthalazinol preparation” (Nippon Kayaku Kabushiki Kaisha, priority 1979, dated 1983)
Values after ≈ are worked out from the molar mass of the structure shown.

Key:
alcohol dehydrogenase = assay: Metabolism of Phthalazinol with alcohol dehydrogenase in the living body; format: in vivo; details: before it arrives at the blood circulation system
[1] = Water-solubility and wettability of Phthalazinol; format: physicochemical
[2] = Oral absorption and blood content of Phthalazinol (first pass effect); format: in vivo

With `CCOC(=O)c1c(C)cc2c(CO)n[nH]c(=O)c2c1C` [Phthalazinol, 6,8-Dimethyl-7-ethoxycarbonyl-4-hydroxymethyl-1-phthalazone] the “metabolism (4-hydroxymethyl converted into inactive 4-carboxyl group)” value (alcohol dehydrogenase) was “readily metabolized”, the wettability with water [1] was “low wettability” and the solubility ([1]; water at 25° C.) was about 200 µg/mL (≈ 724 µM). The absorption velocity ([2]; Phthalazinol subjected to the tests at present) was “low absorption velocity”, the Fa ([2]; in vivo, po, administered orally) was about 100% and the “actual Phthalazinol content of the blood relative to the theoretical value” ([2]; theoretical value assumes no metabolism and complete absorption) was “several tenths”.
